Values quoted from earlier work, collected in paper PMC13584777, “Synthesis, Conformational Analysis, and Evaluation of 6R- and 6S‑Methylmannoimidazoles as Mannosidase Inhibitors” (ACS Omega, 2026).

Biological target: T1, BtMan2A (Bacteroides thetaiotaomicron, UniProt Q8AAK6)
T1 construct: purchased NZYTech CZ0810
Conditions: Figure 3, authors' earlier study of the 1-deoxymannojirimycin series

T1 sequence (Q8AAK6 entry or part of it, change not shown): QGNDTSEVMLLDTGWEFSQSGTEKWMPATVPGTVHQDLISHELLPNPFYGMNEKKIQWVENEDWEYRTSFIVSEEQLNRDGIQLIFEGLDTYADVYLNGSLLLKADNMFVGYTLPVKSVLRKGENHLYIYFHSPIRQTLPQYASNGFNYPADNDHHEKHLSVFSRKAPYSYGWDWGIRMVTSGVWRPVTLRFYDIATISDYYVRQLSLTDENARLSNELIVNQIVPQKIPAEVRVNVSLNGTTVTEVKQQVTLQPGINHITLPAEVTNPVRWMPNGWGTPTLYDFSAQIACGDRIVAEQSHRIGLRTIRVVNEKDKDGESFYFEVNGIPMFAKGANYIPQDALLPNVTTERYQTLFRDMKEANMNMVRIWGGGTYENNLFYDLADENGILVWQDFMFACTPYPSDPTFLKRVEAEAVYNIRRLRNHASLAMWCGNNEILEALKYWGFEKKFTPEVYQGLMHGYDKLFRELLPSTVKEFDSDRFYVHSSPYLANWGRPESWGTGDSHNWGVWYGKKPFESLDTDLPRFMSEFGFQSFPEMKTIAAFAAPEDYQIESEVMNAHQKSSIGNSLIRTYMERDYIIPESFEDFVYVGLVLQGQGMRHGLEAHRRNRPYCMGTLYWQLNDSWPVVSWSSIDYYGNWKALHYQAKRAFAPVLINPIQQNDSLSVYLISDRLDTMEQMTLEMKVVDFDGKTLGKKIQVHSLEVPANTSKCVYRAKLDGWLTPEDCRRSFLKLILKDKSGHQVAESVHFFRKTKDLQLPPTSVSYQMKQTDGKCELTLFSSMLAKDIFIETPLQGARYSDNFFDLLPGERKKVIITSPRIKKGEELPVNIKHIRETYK

C[C@@H](O)[C@H]1NC[C@@H](O)[C@@H](O)[C@@H]1O [compound 1, 6R-methyl-1-deoxymannojirimycin]
Ki: 14 ± 1 mM

C[C@H](O)[C@H]1NC[C@@H](O)[C@@H](O)[C@@H]1O [compound 2, 6S-methyl-1-deoxymannojirimycin]
Ki: 1.4 ± 0.2 mM
